Read-outs that look alike come from different tables or passages of the source.
Assays:
Experiment in all cases: Further analysis of a plurality of inhibitors and a plurality of kinases on microarray (Example IX, Table 5);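 also: inhibition of each kinase by the inhibitors is given as a qualitative level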;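 as to Inhibition level, MAP3K4: level 0 no or unclear inhibition to Level 2 substantial inhibition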;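 as to Inhibition level, TBK1: level 0 no or unclear inhibition to Level 2 substantial inhibition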
Type in all cases: biochemical
[1] = target: T1, plurality of kinases (Table 5) (Homo sapiens, UniProt P51813); conditions: plate B12; inhibitor 100 uM
T1 sequence (P51813 1-675): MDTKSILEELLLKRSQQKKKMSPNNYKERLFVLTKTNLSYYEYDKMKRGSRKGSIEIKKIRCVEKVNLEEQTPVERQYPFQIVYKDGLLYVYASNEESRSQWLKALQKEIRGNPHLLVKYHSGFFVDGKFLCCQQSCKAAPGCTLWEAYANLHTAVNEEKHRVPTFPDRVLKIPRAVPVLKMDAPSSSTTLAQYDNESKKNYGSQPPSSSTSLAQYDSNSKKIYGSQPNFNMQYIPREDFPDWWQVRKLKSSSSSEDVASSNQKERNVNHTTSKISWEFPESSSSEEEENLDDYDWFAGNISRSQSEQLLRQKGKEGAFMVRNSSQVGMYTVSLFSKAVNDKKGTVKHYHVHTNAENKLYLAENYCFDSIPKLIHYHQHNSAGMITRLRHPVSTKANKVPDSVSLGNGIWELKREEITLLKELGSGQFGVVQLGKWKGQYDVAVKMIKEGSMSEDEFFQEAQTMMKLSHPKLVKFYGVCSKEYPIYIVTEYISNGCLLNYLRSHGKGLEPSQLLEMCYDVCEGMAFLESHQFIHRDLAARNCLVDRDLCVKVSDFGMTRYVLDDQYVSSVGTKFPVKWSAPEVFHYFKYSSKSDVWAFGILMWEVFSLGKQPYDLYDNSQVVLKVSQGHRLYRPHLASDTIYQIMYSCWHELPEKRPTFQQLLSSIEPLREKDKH

[2] = target: T2, plurality of kinases (Table 5) (Homo sapiens, UniProt P54762)
T2 sequence (P54762 18-984): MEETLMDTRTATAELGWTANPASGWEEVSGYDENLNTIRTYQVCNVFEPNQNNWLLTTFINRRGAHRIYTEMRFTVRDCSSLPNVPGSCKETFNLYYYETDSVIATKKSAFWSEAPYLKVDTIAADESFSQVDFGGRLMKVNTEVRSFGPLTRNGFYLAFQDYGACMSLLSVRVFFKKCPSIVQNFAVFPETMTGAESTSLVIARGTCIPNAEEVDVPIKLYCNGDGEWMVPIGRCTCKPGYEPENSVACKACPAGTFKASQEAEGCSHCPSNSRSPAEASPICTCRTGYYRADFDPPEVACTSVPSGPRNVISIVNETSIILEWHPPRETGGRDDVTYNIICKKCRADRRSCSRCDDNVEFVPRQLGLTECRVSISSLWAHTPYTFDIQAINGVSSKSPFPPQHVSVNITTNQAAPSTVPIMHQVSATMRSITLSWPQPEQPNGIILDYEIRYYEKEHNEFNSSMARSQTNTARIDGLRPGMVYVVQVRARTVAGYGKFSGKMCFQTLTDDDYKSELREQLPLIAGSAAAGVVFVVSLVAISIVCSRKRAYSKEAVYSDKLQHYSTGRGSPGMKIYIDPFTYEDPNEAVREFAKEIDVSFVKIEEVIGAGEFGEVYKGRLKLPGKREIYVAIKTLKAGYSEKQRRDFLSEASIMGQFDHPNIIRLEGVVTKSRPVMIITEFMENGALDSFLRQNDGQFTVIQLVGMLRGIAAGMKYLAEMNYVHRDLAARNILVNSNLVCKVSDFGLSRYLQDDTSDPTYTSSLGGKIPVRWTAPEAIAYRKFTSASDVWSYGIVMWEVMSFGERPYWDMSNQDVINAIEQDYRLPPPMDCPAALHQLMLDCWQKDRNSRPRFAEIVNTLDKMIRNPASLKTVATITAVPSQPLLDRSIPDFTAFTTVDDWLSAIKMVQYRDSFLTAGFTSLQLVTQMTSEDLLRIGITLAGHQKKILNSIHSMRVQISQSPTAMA

[3] = target: plurality of kinases (Table 5) (Homo sapiens, UniProt P00519); conditions: plate B6
Sequence of plurality of kinases (Table 5) (Homo sapiens, UniProt P00519) (P00519 whole entry): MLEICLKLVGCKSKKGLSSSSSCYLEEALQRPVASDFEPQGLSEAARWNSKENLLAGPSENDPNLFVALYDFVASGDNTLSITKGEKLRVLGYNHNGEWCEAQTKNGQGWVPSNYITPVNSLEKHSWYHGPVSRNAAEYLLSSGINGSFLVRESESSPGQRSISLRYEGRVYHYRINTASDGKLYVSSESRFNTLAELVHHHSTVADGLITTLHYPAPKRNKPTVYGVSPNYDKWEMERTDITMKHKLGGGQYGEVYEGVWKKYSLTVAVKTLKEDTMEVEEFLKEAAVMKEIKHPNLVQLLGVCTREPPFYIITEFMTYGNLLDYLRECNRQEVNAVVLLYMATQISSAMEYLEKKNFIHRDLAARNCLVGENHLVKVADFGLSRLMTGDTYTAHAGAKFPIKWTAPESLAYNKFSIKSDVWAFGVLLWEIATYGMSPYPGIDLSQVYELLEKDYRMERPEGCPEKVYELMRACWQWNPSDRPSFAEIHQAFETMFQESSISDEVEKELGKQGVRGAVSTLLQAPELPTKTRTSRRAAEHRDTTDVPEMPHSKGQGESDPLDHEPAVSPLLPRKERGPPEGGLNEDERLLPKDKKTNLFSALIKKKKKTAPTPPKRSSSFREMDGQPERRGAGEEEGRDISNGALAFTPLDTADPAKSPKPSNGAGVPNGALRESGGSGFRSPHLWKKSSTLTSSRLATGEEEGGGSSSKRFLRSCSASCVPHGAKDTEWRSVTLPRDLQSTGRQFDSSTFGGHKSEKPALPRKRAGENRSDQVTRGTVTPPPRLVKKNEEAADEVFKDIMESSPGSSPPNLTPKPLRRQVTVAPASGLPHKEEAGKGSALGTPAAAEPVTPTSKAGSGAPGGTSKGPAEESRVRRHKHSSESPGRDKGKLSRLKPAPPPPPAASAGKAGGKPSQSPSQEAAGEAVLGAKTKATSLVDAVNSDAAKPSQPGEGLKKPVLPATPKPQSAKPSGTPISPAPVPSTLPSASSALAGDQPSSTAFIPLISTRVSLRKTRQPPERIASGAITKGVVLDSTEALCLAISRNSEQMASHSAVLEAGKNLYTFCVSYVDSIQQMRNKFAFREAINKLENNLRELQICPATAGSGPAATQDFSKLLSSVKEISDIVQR

[4] = target: plurality of kinases (Table 5) (Homo sapiens, UniProt Q00536); conditions: plate A3; inhibitor 100 uM
Sequence of plurality of kinases (Table 5) (Homo sapiens, UniProt Q00536) (Q00536 whole entry): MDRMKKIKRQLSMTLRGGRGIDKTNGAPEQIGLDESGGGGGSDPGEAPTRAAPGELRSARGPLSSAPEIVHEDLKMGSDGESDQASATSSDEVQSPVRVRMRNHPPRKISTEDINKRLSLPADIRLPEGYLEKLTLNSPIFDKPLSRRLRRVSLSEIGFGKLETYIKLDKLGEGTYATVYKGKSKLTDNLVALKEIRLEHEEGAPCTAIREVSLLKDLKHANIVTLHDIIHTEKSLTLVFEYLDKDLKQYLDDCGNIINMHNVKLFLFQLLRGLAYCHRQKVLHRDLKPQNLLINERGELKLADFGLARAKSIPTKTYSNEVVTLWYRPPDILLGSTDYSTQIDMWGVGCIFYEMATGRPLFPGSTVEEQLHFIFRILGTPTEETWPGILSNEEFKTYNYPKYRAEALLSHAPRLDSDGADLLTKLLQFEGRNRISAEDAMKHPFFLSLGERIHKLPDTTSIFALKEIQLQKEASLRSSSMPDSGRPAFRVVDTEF

[5] = target: T3, plurality of kinases (Table 5) (Homo sapiens, UniProt Q9UHD2); conditions: plate G1; inhibitor 100 uM
T3 sequence (Q9UHD2 1-729): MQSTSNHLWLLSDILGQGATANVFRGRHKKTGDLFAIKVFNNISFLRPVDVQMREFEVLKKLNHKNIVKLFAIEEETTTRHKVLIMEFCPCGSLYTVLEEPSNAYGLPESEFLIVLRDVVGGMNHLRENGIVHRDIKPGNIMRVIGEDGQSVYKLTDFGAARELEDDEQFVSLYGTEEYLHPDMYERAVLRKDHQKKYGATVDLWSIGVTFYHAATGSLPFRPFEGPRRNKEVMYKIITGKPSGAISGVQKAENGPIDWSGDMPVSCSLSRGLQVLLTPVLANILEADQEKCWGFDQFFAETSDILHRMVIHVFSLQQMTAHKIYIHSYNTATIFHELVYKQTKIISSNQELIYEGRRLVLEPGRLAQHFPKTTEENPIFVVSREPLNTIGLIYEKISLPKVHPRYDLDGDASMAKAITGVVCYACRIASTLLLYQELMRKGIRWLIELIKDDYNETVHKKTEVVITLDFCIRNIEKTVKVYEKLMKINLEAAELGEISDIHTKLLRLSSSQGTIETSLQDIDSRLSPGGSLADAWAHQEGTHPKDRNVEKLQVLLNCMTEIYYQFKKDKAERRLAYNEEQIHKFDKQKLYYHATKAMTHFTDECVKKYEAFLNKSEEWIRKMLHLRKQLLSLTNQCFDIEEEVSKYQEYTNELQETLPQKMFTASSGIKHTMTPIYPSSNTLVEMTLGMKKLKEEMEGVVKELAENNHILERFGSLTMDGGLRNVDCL

[6] = target: plurality of kinases (Table 5) (Homo sapiens, UniProt Q9Y6R4); conditions: plate E7; inhibitor 100 uM
Sequence of plurality of kinases (Table 5) (Homo sapiens, UniProt Q9Y6R4) (Q9Y6R4 whole entry): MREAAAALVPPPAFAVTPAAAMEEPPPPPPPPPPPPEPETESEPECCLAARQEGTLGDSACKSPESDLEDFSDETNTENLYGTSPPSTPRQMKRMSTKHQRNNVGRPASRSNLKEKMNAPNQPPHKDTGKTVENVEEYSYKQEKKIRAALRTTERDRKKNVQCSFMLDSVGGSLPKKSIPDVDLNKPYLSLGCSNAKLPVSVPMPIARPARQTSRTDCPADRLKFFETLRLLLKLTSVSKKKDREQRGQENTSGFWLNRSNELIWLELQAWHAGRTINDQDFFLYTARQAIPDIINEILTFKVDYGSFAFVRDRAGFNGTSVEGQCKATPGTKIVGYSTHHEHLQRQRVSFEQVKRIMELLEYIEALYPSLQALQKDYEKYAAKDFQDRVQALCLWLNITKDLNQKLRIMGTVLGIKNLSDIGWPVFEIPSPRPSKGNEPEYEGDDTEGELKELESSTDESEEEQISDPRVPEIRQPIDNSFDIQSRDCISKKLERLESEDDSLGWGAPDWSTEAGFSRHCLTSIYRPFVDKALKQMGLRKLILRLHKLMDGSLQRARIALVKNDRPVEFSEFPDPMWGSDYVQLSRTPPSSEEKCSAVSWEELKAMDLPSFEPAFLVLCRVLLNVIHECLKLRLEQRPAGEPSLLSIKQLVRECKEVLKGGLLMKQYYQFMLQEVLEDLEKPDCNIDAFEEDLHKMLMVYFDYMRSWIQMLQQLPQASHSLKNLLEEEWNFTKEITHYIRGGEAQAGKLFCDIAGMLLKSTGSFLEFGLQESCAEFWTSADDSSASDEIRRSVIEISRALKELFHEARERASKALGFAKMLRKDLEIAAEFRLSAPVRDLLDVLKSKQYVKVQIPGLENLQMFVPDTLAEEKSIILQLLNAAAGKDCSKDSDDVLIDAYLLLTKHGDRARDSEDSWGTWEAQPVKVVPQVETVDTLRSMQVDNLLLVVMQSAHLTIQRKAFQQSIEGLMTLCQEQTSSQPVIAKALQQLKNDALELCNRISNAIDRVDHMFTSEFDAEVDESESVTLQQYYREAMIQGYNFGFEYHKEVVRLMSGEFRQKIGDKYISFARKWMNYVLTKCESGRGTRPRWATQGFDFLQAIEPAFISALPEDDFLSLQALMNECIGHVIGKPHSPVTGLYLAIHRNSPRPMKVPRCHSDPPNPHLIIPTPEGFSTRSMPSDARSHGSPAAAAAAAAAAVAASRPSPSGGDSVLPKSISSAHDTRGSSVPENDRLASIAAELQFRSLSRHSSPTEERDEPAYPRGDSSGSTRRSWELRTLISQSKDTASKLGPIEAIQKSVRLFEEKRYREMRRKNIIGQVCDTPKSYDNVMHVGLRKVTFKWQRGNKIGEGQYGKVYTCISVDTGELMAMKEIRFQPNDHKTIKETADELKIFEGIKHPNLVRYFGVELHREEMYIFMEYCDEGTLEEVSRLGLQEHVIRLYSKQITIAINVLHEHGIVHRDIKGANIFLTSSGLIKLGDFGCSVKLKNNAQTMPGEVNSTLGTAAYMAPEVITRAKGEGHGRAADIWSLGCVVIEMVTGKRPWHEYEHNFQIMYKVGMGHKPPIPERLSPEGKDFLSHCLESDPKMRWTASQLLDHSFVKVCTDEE

Row | SMILES | Inhibition level, BMX [1] | Inhibition level, EPHB1 ([2]; plate B8, Genistein, conc. not given) | Inhibition level, EPHB1 ([2]; plate B8, inhibitor 100 uM) | Inhibition level, ABL1 ([3]; Genistein, conc. not given) | Inhibition level, ABL1 ([3]; inhibitor 100 uM) | Inhibition level, PCTK1 [4] | Inhibition level, TBK1 [5] | Inhibition level, MAP3K4 [6] | Inhibition level, EPHB1 [2] | Inhibition level, EPHB1 ([2]; plate B8, Ro-31-8220, conc. not given) | Inhibition level, ABL1 ([3]; Ro-31-8220, conc. not given)
1 | O=c1c(-c2ccc(O)cc2)coc2cc(O)cc(O)c12 [Genistein] | 0 | 0 | 1 | 0 | 0 | 1 | 2 | 1 |  |  | 
2 | O=S(=O)(NCCNC/C=C/c1ccc(Br)cc1)c1cccc2cnccc12 [H-89] | 1 |  | 1 |  | 0 | 2 | 2 | 1 |  |  | 
3 | O=c1c(O)c(-c2ccc(O)c(O)c2)oc2cc(O)cc(O)c12 [Quercetin] | 0 |  | 0 |  |  | 0 | 0 | 0 |  |  | 
4 | COc1cc2ncnc(Nc3cccc(Cl)c3)c2cc1OC [AG 1478] | 1 |  | 2 |  | 1 | 0 | 2 | 1 |  |  | 
5 | N#C/C(=C/c1ccc(O)c(O)c1)C(=O)NCc1ccccc1 [AG 490] | 0 |  | 0 |  | 0 | 0 | 2 | 2 |  |  | 
6 | CN[C@@H]1C[C@H]2O[C@@](C)([C@@H]1OC)n1c3ccccc3c3c4c(c5c6ccccc6n2c5c31)C(=O)NC4 [Staurosporine] |  |  |  |  |  |  |  |  | 2 |  | 
7 | Cn1cc(C2=C(c3cn(CCCSC(=N)N)c4ccccc34)C(=O)NC2=O)c2ccccc21 [Ro-31-8220] | 2 |  | 0 |  | 2 | 0 | 2 | 2 |  | 2 | 0
8 | CC(=O)c1c(O)c(C)c(O)c(Cc2c(O)c3c(c(C(=O)/C=C/c4ccccc4)c2O)OC(C)(C)C=C3)c1O [Rottlerin (Mallotoxin)] | 1 |  | 1 |  | 0 | 0 | 1 | 1 |  |  | 
9 | CC(C)(C)n1nc(-c2ccc(Cl)cc2)c2c(N)ncnc21 [PP2] | 2 |  | 2 |  |  | 1 | 1 | 2 |  |  | 

Reference: patent publication US7635572B2, “Methods for conducting assays for enzyme activity on protein microarrays” (Life Technologies Corporation, priority 2004, dated 2009)
